The text below walks through data of patent US7279468B2, “Integrin ligands” (Abbott GmbH & Co. KG, priority 2000, dated 2007).

For the experiment, the target named is T1, integrin αvβ3 (Homo sapiens, UniProt P05106+P06756).
T1 construct: from tissue; host or cells: human placenta
Nature of the experiment: Integrin αvβ3 assay (competition between vitronectin and test substance for binding to solid phase-bound integrin αvβ3). The note with it: competition with human vitronectin, integrin αvβ3 from human placenta, comparison in words only. As to the method: For the identification and assessment of integrin αvβ3 ligands, a test system was used which was based on competition between the natural integrin αvβ3 ligand vitronectin and the test substance for binding to solid phase-bound integrin αvβ3.
• Microtiter plates coated with 250 ng/ml of integrin αvβ3 in 0.05 M NaHCO3 pH 9.2; 0.1 ml/well; • saturation with 1% powdered milk/assay buffer; 0.3 ml/well; 0.5 h/RT • 3× washing with 0.05% Tween 20/assay buffer • test substance in 0.1% powdered milk/assay buffer, 50 μl/well 0 μg/ml or […] of human vitronectin (Boehringer Ingelheim T007) in 0.1% powdered milk/assay buffer, 50 μl/well; 1 h/RT • 3× washing with 0.05% Tween 20/assay buffer • 1 μg/ml of anti human vitronectin antibody coupled to peroxidase (Kordia SAVN-APHRP) in 0.1% powdered milk/assay buffer; 0.1 ml/well; 1 h/RT • 3× washing with 0.05% Tween 20/assay buffer • 0.1 ml/well of peroxidase substrate • stop reaction with 0.1 ml/well of 2 M H2SO4 • measurement of the absorption at 450 nm • Integrin αvβ3: Human placenta is solubilized with Nonidet and integrin αvβ3 affinity-purified on a GRGDSPK matrix (elution with EDTA). […]

As for `O=C(O)CC1CCN(CC(=O)NCc2ccc(Nc3nc4ccccc4[nH]3)cc2)C(=O)c2ccccc21` (stereo not shown) [Example II, [2-(2-{[4-(1H-Benzimidazol-2-ylamino)benzyl]amino}-2-oxoethyl)-1-oxo-2,3,4,5-tetrahydro-1H-2-benzazepin-5-yl]acetic acid], the “IC50 values (concentration of the ligand at which 50% of the ligand is displaced)” value is “best result”.
